The text below walks through data of patent publication US11612606B2, “8-aminoisoquinoline compounds and uses thereof” (priority 2018, dated 2023).

Sequence of HPK full length, T165E S171E (Q92918 whole entry T165E/S171E, looked up): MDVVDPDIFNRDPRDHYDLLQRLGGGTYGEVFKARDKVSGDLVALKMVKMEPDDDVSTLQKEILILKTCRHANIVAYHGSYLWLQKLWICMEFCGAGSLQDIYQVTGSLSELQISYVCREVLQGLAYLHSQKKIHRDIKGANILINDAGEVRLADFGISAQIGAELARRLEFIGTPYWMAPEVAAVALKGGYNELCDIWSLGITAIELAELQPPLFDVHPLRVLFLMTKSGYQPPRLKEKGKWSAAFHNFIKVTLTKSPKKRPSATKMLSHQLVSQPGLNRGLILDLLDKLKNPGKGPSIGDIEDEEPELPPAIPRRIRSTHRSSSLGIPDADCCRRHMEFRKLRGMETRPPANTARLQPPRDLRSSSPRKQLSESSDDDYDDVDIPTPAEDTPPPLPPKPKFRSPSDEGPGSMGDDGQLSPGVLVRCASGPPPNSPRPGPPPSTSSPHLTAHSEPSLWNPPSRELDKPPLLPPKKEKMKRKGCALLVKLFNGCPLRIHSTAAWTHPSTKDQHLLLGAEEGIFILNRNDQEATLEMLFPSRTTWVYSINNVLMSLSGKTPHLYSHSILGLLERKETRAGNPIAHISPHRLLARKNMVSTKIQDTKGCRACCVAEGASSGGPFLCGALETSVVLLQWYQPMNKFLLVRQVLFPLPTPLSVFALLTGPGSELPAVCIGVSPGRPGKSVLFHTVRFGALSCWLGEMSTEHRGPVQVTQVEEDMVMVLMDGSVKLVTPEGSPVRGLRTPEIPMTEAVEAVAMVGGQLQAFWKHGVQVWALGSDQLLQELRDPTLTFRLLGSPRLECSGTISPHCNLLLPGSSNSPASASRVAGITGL

One experiment concerns the target HPK full length, T165E S171E (Homo sapiens (Human), UniProt Q92918, S171E/T165E). As to the kind of experiment: HPK1-FL HTRF enzymatic assay ("HTRF"). The experiment is classed as biochemical. The conditions noted are these: ATP 1 mM, read-out: HPK1 Ki. As for the experimental part:
Assay Principle: HPK-FL enzyme phosphorylates Biotin-SLP-76 substrate in the presence of ATP at […] and varying concentrations of test compound. Product is detected by FRET using Eu-anti-pSLP76 Ab and SA-XL665. Also see www.cisbio.com/HTRF for additional HTRF technology information.
Instrumentation: Echo555 compound dispenser; Agilent Bravo; Perkin Elmer Envision.
To a 384 well Proxiplate with 80 nL compound or DMSO spotted on was added 4 μl/well kinase mix. The mixture was preincubated for 30 minutes and then 4 μl/well substrate mix was added. The solution was incubated for 60 min and then 4 μl/well detection mix was added. The solution was incubated for another 60 min.
Exemplary compounds were tested in the HTRF binding assays.
(In TR-FRET formats the signal depends on donor and acceptor labels being close together.)
Take `CCc1c(-c2cc3cc(NC(=O)O[C@H]4CC(=O)N(C)C4)ncc3c(N)c2F)cnc2c1NCCO2` (single isomer, unassigned) [Compound 444b]: the Ki is below 0.013 nM.
In the case of `Cc1c(-c2cc3cc(NC(=O)OC4CCN(C)CC4)ncc3c(N)c2F)cnc2c1NCCO2` [Compound 407, 1-Methylpiperidin-4-yl (8-amino-7-fluoro-6-(8-methyl-2,3-dihydro-1H-pyrido[2,3-b][1,4]oxazin-7-yl)isoquinolin-3-yl)carbamate], the Ki came to 0.03 nM.
On the same count and under the same terms, with `Cc1c(-c2cc3cc(NC(=O)NC4CC(F)(F)C4)ncc3c(N)c2F)cnc2c1NCCO2` [Compound 714, 1-(8-Amino-7-fluoro-6-(8-methyl-2,3-dihydro-1H-pyrido[2,3-b][1,4]oxazin-7-yl)isoquinolin-3-yl)-3-(3,3-difluorocyclobutyl)urea] the figure was below 0.013 nM; with `Cc1c(-c2cc3cc(NC(=O)O[C@H]4[C@@H]5CN(C(C)C)C[C@@H]54)ncc3c(N)c2F)cnc2c1NCCO2` [Compound 499a, (1R,5S,6s)-3-Isopropyl-3-azabicyclo[3.1.0]hexan-6-yl (8-amino-7-fluoro-6-(8-methyl-2,3-dihydro-1H-pyrido[2,3-b][1,4]oxazin-7-yl)isoquinolin-3-yl)carbamate], below 0.013 nM.
Turning to `CC(=O)N1CC[C@H](NC(=O)Nc2cc3cc(-c4cnc5c(c4C)NCCO5)c(F)c(N)c3cn2)[C@H](F)C1` (single isomer, unassigned) [Compound 710a, (±)-1-((cis)-1-Acetyl-3-fluoropiperidin-4-yl)-3-(8-amino-7-fluoro-6-(8-methyl-2,3-dihydro-1H-pyrido[2,3-b][1,4]oxazin-7-yl)isoquinolin-3-yl)urea], the Ki is below 0.013 nM.
Turning to `Cc1c(-c2cc3cc(NC(=O)O[C@@H]4COC[C@H]4C)ncc3c(N)c2F)cnc2c1NCCO2` (racemic) [Compound 441ab, (±)-trans-4-Methyltetrahydrofuran-3-yl (8-amino-7-fluoro-6-(8-methyl-2,3-dihydro-1H-pyrido[2,3-b][1,4]oxazin-7-yl)isoquinolin-3-yl)carbamate], the Ki worked out at 0.037 nM.
The same measure, in the same setting: with `Cc1c(-c2cc3cc(NC(=O)N[C@H]4CCN(C)C[C@H]4F)ncc3c(N)c2F)cnc2c1NCCO2` (single isomer, unassigned) [Compound 703c, (±)-1-(8-Amino-7-fluoro-6-(8-methyl-2,3-dihydro-1H-pyrido[2,3-b][1,4]oxazin-7-yl)isoquinolin-3-yl)-3-((cis)-3-fluoro-1-methylpiperidin-4-yl)urea] the figure was 0.03 nM; with `Cc1c(-c2cc3cc(NC(=O)O[C@H]4C[C@](C)(O)C4)ncc3c(N)c2F)cnc2c1NCCO2` [Compound 486b, (1r,3r)-3-Hydroxy-3-methylcyclobutyl (8-amino-7-fluoro-6-(8-methyl-2,3-dihydro-1H-pyrido[2,3-b][1,4]oxazin-7-yl)isoquinolin-3-yl)carbamate], 0.018 nM; with `Cc1c(-c2cc3cc(NC(=O)O[C@@H]4CCOC4)ncc3c(N)c2F)cnc2c1NCC(CO)C2` (mixture of isomers) [Compound 581a, (R)-Tetrahydrofuran-3-yl (8-amino-7-fluoro-6-(7-(hydroxymethyl)-4-methyl-5,6,7,8-tetrahydro-1,5-naphthyridin-3-yl)isoquinolin-3-yl)carbamate], 0.43 nM.
Regarding `Cc1c(-c2cc3cc(NC(=O)O[C@@H]4COC[C@@H]4C)ncc3c(N)c2F)cnc2c1NCCO2` (single isomer, unassigned) [Compound 441d], the Ki was found to be 0.32 nM.
With `Cc1c(-c2cc3cc(NC(=O)O[C@@H]4CC[C@@H]4C)ncc3c(N)c2F)cnc2c1NCCO2` (single isomer, unassigned) [Compound 559c], the Ki is below 0.013 nM.
As to `Cc1c(-c2cc3cc(NC(=O)NC4CC5(C4)CN(CC(F)F)C5)ncc3c(N)c2F)cnc2c1NCCC2` [Compound 739, 1-(8-Amino-7-fluoro-6-(4-methyl-5,6,7,8-tetrahydro-1,5-naphthyridin-3-yl)isoquinolin-3-yl)-3-(2-(2,2-difluoroethyl)-2-azaspiro[3.3]heptan-6-yl)urea], the Ki is below 0.013 nM.
With `Cc1c(-c2cc3cc(NC(=O)N[C@H]4C[C@H](F)C4)ncc3c(N)c2F)cnc2c1NCCO2` [Compound 748b, 1-(8-Amino-7-fluoro-6-(8-methyl-2,3-dihydro-1H-pyrido[2,3-b][1,4]oxazin-7-yl)isoquinolin-3-yl)-3-((1r,3r)-3-fluorocyclobutyl)urea], the Ki stood at 0.018 nM.
As for `Cc1c(-c2cc3cc(NC(=O)O[C@H]4CCNC4)ncc3c(N)c2F)cnc2c1NCCO2` (single isomer, unassigned) [Compound 405b], the Ki turned out to be 0.158 nM.
Consider `Cc1c(-c2cc3cc(NC(=O)O[C@@H]4CCN([C@H]5CCOC5)C[C@@H]4F)ncc3c(N)c2F)cnc2c1NCCO2` [Compound 569a, (3S,4R)-3-Fluoro-1-((S)-tetrahydrofuran-3-yl)piperidin-4-yl (8-amino-7-fluoro-6-(8-methyl-2,3-dihydro-1H-pyrido[2,3-b][1,4]oxazin-7-yl)isoquinolin-3-yl)carbamate], for which the Ki is 0.277 nM.
As for `Cc1c(-c2cc3cc(NC(=O)O[C@H]4CO[C@]5(CCN(C)C5)C4)ncc3c(N)c2F)cnc2c1NCCO2` (relative stereo) [Compound 467b, (3R,5R)-7-Methyl-1-oxa-7-azaspiro[4.4]nonan-3-yl(8-amino-7-fluoro-6-(8-methyl-2,3-dihydro-1H-pyrido[2,3-b][1,4]oxazin-7-yl)isoquinolin-3-yl)carbamate], the Ki stood at 0.064 nM.
For the molecule `Cc1c(-c2cc3cc(NC(=O)N[C@@H]4CC[C@H](C#N)C4)ncc3c(N)c2F)cnc2c1NCCO2` (single isomer, unassigned) [Compound 726a], the Ki was below 0.013 nM.
In the case of `Cc1c(-c2cc3cc(NC(=O)OC4CC5(C4)CN(C4COC4)C5)ncc3c(N)c2F)cnc2c1NCCO2` [Compound 443, 2-(Oxetan-3-yl)-2-azaspiro[3.3]heptan-6-yl (8-amino-7-fluoro-6-(8-methyl-2,3-dihydro-1H-pyrido[2,3-b][1,4]oxazin-7-yl)isoquinolin-3-yl)carbamate], the Ki is below 0.013 nM.
With `Cc1c(-c2cc3cc(NC(=O)O[C@H]4CO[C@@H]5OCC[C@@H]54)ncc3c(N)c2F)cnc2c1NCCO2` (single isomer, unassigned) [Compound 568a], the Ki is 0.185 nM.
With `Cc1c(-c2cc3cc(NC(=O)N[C@H]4C[C@@H](F)C4)ncc3c(N)c2F)cnc2c1NCCO2` [Compound 748a, 1-(8-Amino-7-fluoro-6-(8-methyl-2,3-dihydro-1H-pyrido[2,3-b][1,4]oxazin-7-yl)isoquinolin-3-yl)-3-((1s,3s)-3-fluorocyclobutyl)urea], the inhibitory constant (Ki) is below 0.013 nM.
As for `Cc1c(-c2cc3cc(NC(=O)O[C@@H]4CO[C@]5(CCN(C)C5)C4)ncc3c(N)c2F)cnc2c1NCCO2` (single isomer, unassigned) [Compound 467c], the Ki was 0.027 nM.
In the case of `Cc1c(N)cncc1-c1cc2cc(NC(=O)NC3CCCC3)ncc2c(N)c1F` [Compound 749, 1-(8-Amino-6-(5-amino-4-methylpyridin-3-yl)-7-fluoroisoquinolin-3-yl)-3-cyclopentylurea], the Ki is 0.102 nM.
On to `Cc1c(-c2cc3cc(NC(=O)O[C@H]4C[C@@H](S(C)(=O)=O)C4)ncc3c(N)c2F)cnc2c1NCCO2` [Compound 572a, (1s,3s)-3-(Methylsulfonyl)cyclobutyl (8-amino-7-fluoro-6-(8-methyl-2,3-dihydro-1H-pyrido[2,3-b][1,4]oxazin-7-yl)isoquinolin-3-yl)carbamate], for which the Ki is below 0.013 nM.
Still for that read-out and setting: with `CC[C@H]1COC[C@@H]1OC(=O)Nc1cc2cc(-c3cnc4c(c3C)NCCO4)c(F)c(N)c2cn1` (single isomer, unassigned) [Compound 515b] the figure was 0.017 nM; with `Cc1c(-c2cc3cc(NC(=O)NC4CCCC4)ncc3c(N)c2F)cnc2c1NCCO2` [Compound 706, 1-(8-Amino-7-fluoro-6-(8-methyl-2,3-dihydro-1H-pyrido[2,3-b][1,4]oxazin-7-yl)isoquinolin-3-yl)-3-cyclopentylurea], below 0.013 nM; with `Cc1c(-c2cc3cc(NC(=O)O[C@@H]4CO[C@H]5OCC[C@H]54)ncc3c(N)c2F)cnc2c1NCCO2` (single isomer, unassigned) [Compound 568b], 0.018 nM.
For `Cc1c(-c2cc3cc(NC(=O)N[C@H]4[C@@H]5COC[C@@H]54)ncc3c(N)c2F)cnc2c1NCCO2` [Compound 713a, 1-(8-Amino-7-fluoro-6-(8-methyl-2,3-dihydro-1H-pyrido[2,3-b][1,4]oxazin-7-yl)isoquinolin-3-yl)-3-((1R,5S,6r)-3-oxabicyclo[3.1.0]hexan-6-yl)urea], the Ki is below 0.013 nM.
For `Cc1c(-c2cc3cc(NC(=O)O[C@H]4C[C@@H](O)C4)ncc3c(N)c2F)cnc2c1NC[C@H]1C[C@@H]21` (single isomer, unassigned) [Compound 584b], the Ki came out at 2.1 nM.

The experiment is the same for the next values; noted with them: HPK1 Ki, ATP 1 mM.
Regarding `Cc1c(-c2cc3cc(NC(=O)O[C@H]4CCOC4)ncc3c(N)c2F)cnc2c1NCCO2` [Compound 403b, (S)-Tetrahydrofuran-3-yl (8-amino-7-fluoro-6-(8-methyl-2,3-dihydro-1H-pyrido[2,3-b][1,4]oxazin-7-yl)isoquinolin-3-yl)carbamate], the Ki worked out at 0.064 nM.
Take `CO[C@H]1CC[C@H](NC(=O)Nc2cc3cc(-c4cnc5c(c4C)NCCO5)c(F)c(N)c3cn2)C1` [Compound 730b, 1-(8-amino-7-fluoro-6-(8-methyl-2,3-dihydro-1H-pyrido[2,3-b][1,4]oxazin-7-yl)isoquinolin-3-yl)-3-((1S,3S)-3-methoxycyclopentyl)urea]: the Ki was below 0.013 nM.

A word on the Ki: it is the equilibrium dissociation constant of an inhibitor or competing ligand from its target.
